Source: US20090047742A1 (priority 2005, published 2009)

Columns and labels:
iBMK cells [1] = assay: MTT assay, viability of iBMK cells; type: cell-based, mouse; conditions: for sensitivity to TNF-α-induced cell death (MTT assay): TNF-α/CHX (0.05 μg/ml)
Protocol: 3-(4,5-dimethylthiazol-2-yl)-2,5-diphenyltetrazolium bromide (MTT) assay to measure the viability of iBMK cells treated with paclitaxel, CHX, or both mouse TNF-α and CHX was performed as previously described (Ioffe, M. L., et al., Prostate 61: 243-247. (2004)).
To test if apoptosis mediated by general translation inhibition was dependent on specific BH3-only proteins, the apoptotic response of puma^−/−, bim^−/−, noxa^−/−, nbk/bik^−/− iBMK cells to translation inhibition was tested with CHX. In addition to W2, D3, X2 or K1 cells, puma^−/−, bim^−/−, noxa^−/− or nbk/bik^−/− cells were treated with increasing concentration of CHX (0.05, 0.5, 1.0, 5.0 and 10.0 μg/ml) for 24 hours to induce translation inhibition and viability was assessed. […] In contrast, when D3, K1 (FIG. 6B) and nbk/bik^−/− (FIG. 6C) cells were treated with CHX, cell viability remained high. […] In contrast, D3 cells were resistant to cell death induced by TNF-α and paclitaxel (FIGS. 6D and E). […] Furthermore, NBK/BIK was not required for TNF-α-mediated apoptosis (FIG. 6D) which signals through tBID (Li, H., et al., Cell 94: 491-501 (1998); Luo, X., et al., Cell 94: 481-490 (1998)), nor was NBK/BIK required for apoptosis induced by taxanes (FIG. 6E) which is dependent on BIM (Bouillet, P., et al., Science 286: 1735-1738 (1999); Tan, T. T., et al., Cancer Cell 7: 227-238. (2005)). These findings support the role for specific BH3-only proteins controlling the response to discrete apoptotic stimuli.

iBMK cells [2] = conditions: cited from earlier work
caspase-3, PARP = assay: Western blot of active caspase-3 and PARP in T-Rex-293 lysates; type: cell-based, human
Protocol: Western blot analysis and immunofluorescence were performed as previously described (Perez, D., and White, E. J. Cell Biol. 141: 1255-1266 (1998); Perez, D., and White, E. Mol. Cell 6: 53-63 (2000)). The term “Western blot” refers to a method for identifying proteins in a complex mixture; proteins are separated electrophoretically in a gel medium; transferred from the gel to a protein binding sheet or membrane; and the sheet or membrane containing the separated proteins exposed to specific antibodies which bind to, locate, and enable visualization of protein(s) of interest. T-Rex-293 (mazF/pcDNA3) and T-Rex-293 (mazF/mazE) cells were harvested at 0, 24, 48 and 72 hr post-treatment with tetracycline or staurosporine by scraping and centrifugation. All cell pellets were lysed in 2× Laemmli buffer. Cell lysates were subjected to electrophoresis on a 15% SDS-PAGE gel and then transferred onto an Immobilon-P membrane (Millipore, Bedford, Mass.). The blot was incubated with following antibody: anti-active caspase-3 rabbit polyclonal antibody (Cell Signaling Technology, Beverly, Mass.), anti-BAX, anti-BAK rabbit polyclonal antibody (NT) (Upstate Biotechnology Inc., Lake Placid, N.Y.), anti-BID goat polyclonal antibody (R&D Systems, Inc, Minneapolis, Minn.), anti-Bim rabbit polyclonal antibody (Alexis Biochemical, San Diego, Calif.), anti-BCL-2 hamster monoclonal antibody (PharMingen, San Diego, Calif.), anti-BCL-XL mouse monoclonal antibody (Trevigen, Gaithersburg, Md.), anti-MCL-1 rabbit polyclonal antibody (Stressgen Biotechnologies, Victoria, British Columbia, Canada), anti-PARP mouse monoclonal antibody (PharMingen, San Diego, Calif.), anti-PUMA rabbit polyclonal antibody (Nelson, D. A., et al., Genes Dev. 18: 2095-2107 (2004)), anti-E1A monoclonal antibody; anti-actin monoclonal antibody (Oncogene Research Products); and anti-Xpress monoclonal antibody (Invitrogen). An antibody directed to human NBK/BIK was generated by expression of a GST-tagged human NBK/BIK fusion protein encoding an N-terminal 78-amino acid region in bacteria and immunization of rabbits (Cocalico). Western Blots were developed with horseradish peroxidase-conjugated secondary antibodies using the ECL system (Amersham-Pharmacia Biotech, Piscataway, N.J.).

[3] = system: human GAPDH and β-actin mRNA; assay: Northern blot analysis of cellular mRNA in T-Rex-293 cells; type: cell-based; conditions: co-expression of MazE with MazF, T-Rex-293 (mazF/mazE), throughout time course of induction
Protocol: Northern blot analysis and real-time PCR (RT-PCR) was preformed as previously described (Zhang, Y., et al., Mol. Cell 12: 913-923 (2003); Cuconati, A., et al., Genes Dev. 17: 2922-2932 (2003)). Total RNA from tetracycline-treated (0, 24, 48 and 72 hr) or untreated (0, 24, 48 and 72 hr) T-Rex-293 (mazF/pcDNA3) and T-Rex-293 (mazF/mazE) cells for were isolated through the use of Trizol Reagent (Gibco, Carlsbad, Calif.). For Northern blot analysis, 10 μg of total RNA from each condition was subjected to formaldehyde-agarose gel electrophoresis followed by transfer onto GeneScreen Plus membrane (NEN Life Science Products, Boston, Mass.). The blot was hybridized with ^32P-labeled human GAPDH or β-actin cDNA. One hundred ng of total RNA was subjected to real time RT-PCR with the Taqman EZ-RT PCR kit (PE Applied Biosystems, Lincoln Centre Drive Foster City, Calif.) using recommended conditions provided by the vendor. Primers to analyze the level of human GAPDH mRNA were obtained from Applied Biosystems, and a probe for GAPDH was supplied with 5′ linkage to the reporter dye 2, 7-dimethoxy-4, 5-dichloro-6-carboxy-fluoroecein (JOE), and 3′ linkage to the quencher 6-carboxy-tetramethylrhodamine (TAMURA). β-actin primer sequences were 5′-[…]-3′ and 5′-[…]-3′. β-actin probe sequence was FAM-5′-[…] TTCC-3′-TAMURA. Reactions were carried out in triplicate and the relative amount of human GAPDH and β-actin mRNA was calculated from the difference in fluorescence signal in the 24-, 48- and 72-hr samples compared with the corresponding 0 hr sample.
To assess cellular mRNA levels, total RNA was isolated from whole cells of Tet-treated or -untreated T-Rex-293 cells and subjected to Northern blot analysis using human GAPDH and β-actin cDNA probes. […] Labeled single-stranded DNA fragments complementary to the specific mRNA being sought then are hybridized to the bound mRNA and the label detected by suitable means. […]

[4] = system: human GAPDH and β-actin mRNA; assay: real-time RT-PCR quantification of mRNA levels in T-Rex-293 cells; type: cell-based; conditions: cells expressing both MazE and MazF
Protocol: Northern blot analysis and real-time PCR (RT-PCR) was preformed as previously described (Zhang, Y., et al., Mol. Cell 12: 913-923 (2003); Cuconati, A., et al., Genes Dev. 17: 2922-2932 (2003)). Total RNA from tetracycline-treated (0, 24, 48 and 72 hr) or untreated (0, 24, 48 and 72 hr) T-Rex-293 (mazF/pcDNA3) and T-Rex-293 (mazF/mazE) cells for were isolated through the use of Trizol Reagent (Gibco, Carlsbad, Calif.). For Northern blot analysis, 10 μg of total RNA from each condition was subjected to formaldehyde-agarose gel electrophoresis followed by transfer onto GeneScreen Plus membrane (NEN Life Science Products, Boston, Mass.). The blot was hybridized with ^32P-labeled human GAPDH or β-actin cDNA. One hundred ng of total RNA was subjected to real time RT-PCR with the Taqman EZ-RT PCR kit (PE Applied Biosystems, Lincoln Centre Drive Foster City, Calif.) using recommended conditions provided by the vendor. […] Reactions were carried out in triplicate and the relative amount of human GAPDH and β-actin mRNA was calculated from the difference in fluorescence signal in the 24-, 48- and 72-hr samples compared with the corresponding 0 hr sample.

T-Rex-293 cells [5] = assay: 35S-methionine metabolic labeling (protein synthesis); type: cell-based, human; conditions: T-Rex-293 (mazF/mazE), Tet-treated
Protocol: T-Rex-293 (mazF/pcDNA3) and T-Rex-293 (mazF/mazE) cells were incubated for 0, 24 and 48 hr in tetracycline-containing complete DMEM followed by incubation for 1 hr in fresh methionine-free DMEM containing 10 μCi/ml ^35S-methionine. The cells then were washed with PBS twice and lysed in 2× Laemmli buffer. The cell lysate was subjected to SDS-PAGE followed by autoradiography and coomassie blue stain. Signal intensity was measured by Phosphoimager STORM 860 (Molecular Dynamics, Sunnyvale, Calif.).

T-Rex-293 cells [6] = assay: phase contrast morphology / cytopathic effect; type: cell-based, human; conditions: MazE co-expressed with MazF, T-Rex-293
T-Rex-293 cells [7] = assay: trypan blue exclusion viability; type: cell-based, human; conditions: T-Rex-293 (mazF/mazE), Tet-treated
Protocol: The viability of T-Rex-293 cells was determined by trypan blue exclusion as previously described (Degenhardt, K., et al., J. Biol. Chem. 277: 14127-14134 (2002)). T-Rex-293 (mazF/pcDNA3) and T-Rex-293 (mazF/mazE) cells were cultured for 24 hr before tetracycline treatment and then incubated for 0, 24, 48 and 72 hr at 37° C. in the presence or absence of 10 μg/ml tetracycline. After treatment, cells were collected by centrifugation of the supernatant plus adherent cells, which were harvested by trypsinization. Cells were resuspended in 500 μl of fresh medium containing 0.1% trypan blue solution (Sigma, St. Louis, Mo.) and then counted on a hemocytometer to assess the number of dead blue cells and the total number of cells counted. As a control for apoptotic cell death, T-Rex-293 (mazF/mazE) cells were treated with 1 μM staurosporine (Sigma, St. Louis, Mo.) for same time periods concurrently with tetracycline treatment.

T-Rex-293 cells [8] = assay: FACS analysis of propidium iodide labeling (sub-G1 peak); type: cell-based, human; conditions: T-Rex-293 (mazF/mazE), MazE co-expressed with MazF, 72 hours of induction
Protocol: T-Rex-293 (mazF/pcDNA3) cells and T-Rex-293 (mazF/mazE) cells treated with tetracycline for 0, 24, 48 and 72 hr were harvested by trypsinization, pelleted by centrifugation and resuspended in PBS. The cells were fixed with ice-cold 70% ethanol for 30 min and stained with propidium iodide (10 μg/ml) and RNase A (100 μg/ml) overnight. The cells were analyzed on a Becton Dickinson FACSCalibur system (San Jose, Calif.).

iBMK cells [9] = assay: β-galactosidase assay, viability of iBMK cells co-expressing LacZ; type: cell-based, mouse; conditions: MazE transiently co-expressed with MazF in W2 and X2 cells
Protocol: β-galactosidase assays to determine the viability of iBMK cells co-expressing LacZ and MazF were performed as previously described (Han, J., Sabbatini, P., and White, E. Mol. Cell. Biol. 16: 5857-5864 (1996)). W2, D3, X2 and K1 co-transfected with pcDNA6/His/LacZ and pcDNA4/TO/mazF or pcDNA3 for 48 hr were fixed in 1% glutaraldehyde and then stained with 0.2% X-gal solution at 37° C. for 24 hr. β-Galactosidase positive blue cells and the total number of cells (approximately 200 cells) were independently counted on a 6-cm diameter dish.

[10] = W2 and three independent nbk/bik−/− iBMK cell lines

Which “sensitivity to TNF-α-induced cell death (MTT assay)” value (iBMK cells [1]; D3 cells) does the source give for TNF-α here?
Its value is “resistant”.

What about the “sensitivity to TNF-α-induced cell death (MTT assay)” value (iBMK cells [1]; [10]) of the same molecule?
The value was “clearly sensitive”.

And the TNF-α-induced apoptosis (iBMK cells [2]; D3 iBMK cells)?
Its TNF-α-induced apoptosis is “resistant”.

And the apoptosis induction (iBMK cells [2]; W2, X2, and K1 iBMK cells)?
Its apoptosis induction is “induces apoptosis”.

Which results are given for `CC(=O)O[C@H]1C(=O)[C@@]2(C)[C@H]([C@H](OC(=O)c3ccccc3)[C@]3(O)C[C@H](OC(=O)[C@H](O)[C@@H](NC(=O)c4ccccc4)c4ccccc4)C(C)=C1C3(C)C)[C@]1(OC(C)=O)CO[C@@H]1C[C@@H]2O` [paclitaxel]?
sensitivity to paclitaxel-induced cell death (MTT assay) (iBMK cells [1]; D3 cells): resistant; sensitivity to paclitaxel-induced cell death (MTT assay) (iBMK cells [1]; [10]): clearly sensitive

With `C[C@@H]1C[C@@H]([C@H](O)CC2CC(=O)NC(=O)C2)C(=O)[C@@H](C)C1` [CHX, cycloheximide] as the molecule, how does the “cell viability (MTT assay)” value (iBMK cells [1]; D3, K1 and nbk/bik−/− cells, CHX 0.05-10.0 μg/ml for 24 hours) read?
Its value is “remained high”.

What about the “survival (MTT assay)” value (iBMK cells [1]; W2, X2, puma−/−, bim−/− and noxa−/− cells, CHX 0.05-10.0 μg/ml for 24 hours) of the same molecule?
The value was “decreased in a dose-dependent manner”.

With `CN[C@@H]1C[C@H]2O[C@@](C)([C@@H]1OC)n1c3ccccc3c3c4c(c5c6ccccc6n2c5c31)C(=O)NC4` [staurosporine, reference compound] as the molecule, how does the “active caspase-3 (Western blot)” value (caspase-3, PARP; extracts from T-Rex-293 (mazF/mazE) cells treated with 1 μM staurosporine) read?
Its value is “detected”.

B1: MazE: labile E. coli antitoxin that antagonizes the endoribonuclease activity of MazF; expressed from pcDNA3/mazE together with MazF (protein, UniProt P0AE72 1-82, looked up)
Antitoxin MazE: MIHSSVKRWGNSPAVRIPATLMQALNLNIDDEVKIDLVDGKLIIEPVRKEPVFTLAELVNDITPENLHENIDWGEPKDKEVW
Which “levels of both GAPDH and β-actin mRNAs (Northern blot)” value [3] does the source give for B1 here?
The value was “maintained”.

What about the “levels of both GAPDH and β-actin mRNAs (real-time RT-PCR)” value [4] of the same molecule?
Its value is “constant levels”.

And the “effect of MazE co-expression on MazF inhibition of protein synthesis (35S-methionine incorporation)” value (T-Rex-293 cells [5])?
The value was “clearly prevented the inhibitory effect of MazF”.

What about the “cell number and morphology” value (T-Rex-293 cells [6]) of the same molecule?
Its value is “maintained”.

What about the “effect of co-expression of MazE with MazF on viability (trypan blue exclusion)” value (T-Rex-293 cells [7]) of the same molecule?
Its value is “conferred resistance to MazF-mediated killing”.

What about the sub-G1 peak (T-Rex-293 cells [8]) of the same molecule?
The sub-G1 peak was 11.4%.

What about the “activation of caspase-3 (Western blot)” value (caspase-3, PARP; co-expression of MazE with MazF, Tet-treated T-Rex-293 (mazF/mazE)) of the same molecule?
Its value is “inhibited”.

And the “cleaved PARP (Western blot)” value (caspase-3, PARP; extracts of cells expressing both MazE and MazF)?
Its value is “not present”.

What about the “effect of MazE on MazF-induced cell death (β-galactosidase assay)” value (iBMK cells [9]) of the same molecule?
The value was “significantly repressed MazF-induced cell death”.
